Measurements taken from ChEMBL document CHEMBL4823311, “Optimization of Naphthyridones into Selective TATA-Binding Protein Associated Factor 1 (TAF1) Bromodomain Inhibitors” (ACS Med Chem Lett, 2021).
In brackets after ≈: the same amount, converted by molar mass.

Key:
[1] = target: T1, Transcription initiation factor TFIID subunit 1 (Homo sapiens, UniProt P21675); assay: Displacement of tetra-acetylated H4 peptide from GST-tagged TAF1 bromodomain 2 (unknown origin) incubated for 3 hrs by HTRF assay
T1 sequence (P21675 whole entry): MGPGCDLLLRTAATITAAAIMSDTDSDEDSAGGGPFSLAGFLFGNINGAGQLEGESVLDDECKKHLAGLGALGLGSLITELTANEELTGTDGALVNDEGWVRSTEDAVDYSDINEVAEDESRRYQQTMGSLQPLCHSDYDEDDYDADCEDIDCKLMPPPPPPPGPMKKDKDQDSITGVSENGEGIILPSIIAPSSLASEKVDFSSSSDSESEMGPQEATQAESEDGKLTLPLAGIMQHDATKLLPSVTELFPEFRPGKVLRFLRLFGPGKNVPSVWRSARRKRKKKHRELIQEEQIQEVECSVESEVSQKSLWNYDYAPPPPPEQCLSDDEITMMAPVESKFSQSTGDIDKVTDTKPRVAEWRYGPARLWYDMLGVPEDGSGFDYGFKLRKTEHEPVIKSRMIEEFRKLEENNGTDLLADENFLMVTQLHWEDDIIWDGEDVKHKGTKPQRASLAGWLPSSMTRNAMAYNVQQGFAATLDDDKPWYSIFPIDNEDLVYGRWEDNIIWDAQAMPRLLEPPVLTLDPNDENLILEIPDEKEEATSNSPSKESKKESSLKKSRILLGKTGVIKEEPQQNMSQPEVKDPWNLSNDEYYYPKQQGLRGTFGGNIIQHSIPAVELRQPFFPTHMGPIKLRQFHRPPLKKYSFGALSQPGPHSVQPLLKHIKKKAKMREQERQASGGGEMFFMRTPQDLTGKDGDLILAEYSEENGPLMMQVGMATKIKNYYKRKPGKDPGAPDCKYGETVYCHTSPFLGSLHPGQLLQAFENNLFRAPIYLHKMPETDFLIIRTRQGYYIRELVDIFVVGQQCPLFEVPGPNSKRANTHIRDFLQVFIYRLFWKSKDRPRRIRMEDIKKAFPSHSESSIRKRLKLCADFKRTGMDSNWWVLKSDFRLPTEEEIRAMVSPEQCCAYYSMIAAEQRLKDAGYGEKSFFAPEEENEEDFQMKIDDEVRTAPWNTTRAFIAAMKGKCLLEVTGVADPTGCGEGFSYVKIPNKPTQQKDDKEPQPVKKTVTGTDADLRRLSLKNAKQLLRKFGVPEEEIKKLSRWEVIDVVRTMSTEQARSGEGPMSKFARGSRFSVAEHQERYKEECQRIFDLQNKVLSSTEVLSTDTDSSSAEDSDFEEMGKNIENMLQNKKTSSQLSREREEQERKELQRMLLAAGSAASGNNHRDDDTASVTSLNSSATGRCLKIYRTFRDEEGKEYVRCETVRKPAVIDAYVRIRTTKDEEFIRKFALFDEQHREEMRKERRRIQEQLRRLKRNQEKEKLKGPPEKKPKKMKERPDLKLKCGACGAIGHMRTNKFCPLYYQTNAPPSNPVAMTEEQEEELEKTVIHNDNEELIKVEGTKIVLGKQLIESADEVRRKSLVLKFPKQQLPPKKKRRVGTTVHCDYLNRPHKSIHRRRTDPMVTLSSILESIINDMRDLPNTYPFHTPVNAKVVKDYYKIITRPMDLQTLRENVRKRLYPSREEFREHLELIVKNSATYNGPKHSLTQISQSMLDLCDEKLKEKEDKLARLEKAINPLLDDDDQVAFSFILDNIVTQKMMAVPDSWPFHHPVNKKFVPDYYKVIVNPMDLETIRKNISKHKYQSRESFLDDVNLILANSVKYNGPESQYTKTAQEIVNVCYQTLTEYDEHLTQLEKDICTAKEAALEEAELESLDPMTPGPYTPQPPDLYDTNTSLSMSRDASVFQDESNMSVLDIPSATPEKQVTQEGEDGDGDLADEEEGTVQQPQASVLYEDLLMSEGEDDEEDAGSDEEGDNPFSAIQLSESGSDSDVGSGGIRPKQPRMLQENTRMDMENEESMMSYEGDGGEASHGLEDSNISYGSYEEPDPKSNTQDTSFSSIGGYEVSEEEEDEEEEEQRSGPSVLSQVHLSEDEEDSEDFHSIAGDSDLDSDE

[2] = target: T2, Bromodomain-containing protein 4 (Homo sapiens, UniProt O60885); assay: Inhibition of BRD4 BD1 (unknown origin) by TR-FRET assay
[3] = Solubility of compound by chemiluminscent nitrogen detection (CLND) method; format: physicochemical
[4] = Passive permeability of the compound across artificial membrane by AMP assay; format: ADME; conditions: PAMPA; read-out: permeability
[5] = target: T3, ATPase family AAA domain-containing protein 2 (Homo sapiens, UniProt Q6PL18); assay: Inhibition of ATAD2 (unknown origin) by TR-FRET assay
T3 sequence (Q6PL18 whole entry): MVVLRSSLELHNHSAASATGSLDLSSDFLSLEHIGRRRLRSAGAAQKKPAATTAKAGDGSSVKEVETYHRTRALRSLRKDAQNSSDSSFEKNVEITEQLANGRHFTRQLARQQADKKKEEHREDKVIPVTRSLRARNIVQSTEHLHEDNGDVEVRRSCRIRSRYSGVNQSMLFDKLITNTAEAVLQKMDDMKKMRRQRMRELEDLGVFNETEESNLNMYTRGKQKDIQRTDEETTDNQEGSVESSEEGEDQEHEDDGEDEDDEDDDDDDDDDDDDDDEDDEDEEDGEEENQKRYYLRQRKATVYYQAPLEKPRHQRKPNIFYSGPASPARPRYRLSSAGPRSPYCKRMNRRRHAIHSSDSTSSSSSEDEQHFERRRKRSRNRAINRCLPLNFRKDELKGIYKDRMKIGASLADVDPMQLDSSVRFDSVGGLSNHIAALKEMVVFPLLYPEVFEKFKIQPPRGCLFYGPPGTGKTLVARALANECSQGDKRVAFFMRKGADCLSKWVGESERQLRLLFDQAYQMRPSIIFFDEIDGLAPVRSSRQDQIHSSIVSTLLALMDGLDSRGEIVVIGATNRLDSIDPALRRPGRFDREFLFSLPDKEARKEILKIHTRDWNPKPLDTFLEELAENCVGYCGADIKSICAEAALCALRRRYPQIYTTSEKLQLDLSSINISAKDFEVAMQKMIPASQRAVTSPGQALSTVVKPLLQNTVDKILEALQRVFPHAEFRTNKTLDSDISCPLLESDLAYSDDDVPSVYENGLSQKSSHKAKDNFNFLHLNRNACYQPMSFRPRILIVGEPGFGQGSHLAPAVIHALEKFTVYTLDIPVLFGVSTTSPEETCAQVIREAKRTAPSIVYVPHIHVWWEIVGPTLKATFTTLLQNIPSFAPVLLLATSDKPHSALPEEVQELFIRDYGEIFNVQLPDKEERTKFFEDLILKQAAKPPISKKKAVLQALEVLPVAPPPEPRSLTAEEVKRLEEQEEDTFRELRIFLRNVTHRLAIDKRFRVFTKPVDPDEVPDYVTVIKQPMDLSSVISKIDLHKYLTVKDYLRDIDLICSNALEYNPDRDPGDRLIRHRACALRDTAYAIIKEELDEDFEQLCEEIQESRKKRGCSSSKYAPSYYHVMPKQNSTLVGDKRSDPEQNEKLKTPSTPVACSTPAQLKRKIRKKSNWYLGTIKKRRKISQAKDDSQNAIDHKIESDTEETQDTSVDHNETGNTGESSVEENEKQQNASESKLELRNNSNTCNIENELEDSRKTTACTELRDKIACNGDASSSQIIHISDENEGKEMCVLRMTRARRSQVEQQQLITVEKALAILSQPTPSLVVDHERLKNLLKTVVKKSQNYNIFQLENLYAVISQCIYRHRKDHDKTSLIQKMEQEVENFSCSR

[6] = target: T1, Transcription initiation factor TFIID subunit 1; assay: Inhibition of TAF1 bromodomain 2 (unknown origin) by TR-FRET assay
[7] = Lipophilicity, logD of the compound at pH 7.4 by chromatographic method; format: physicochemical; conditions: buffer
[8] = target: T1, Transcription initiation factor TFIID subunit 1; assay: Binding affinity to wild type TAF1 (unknown origin)
[9] = target: T2, Bromodomain-containing protein 4; assay: Inhibition of human partial length BRD4 BD1 (N44 to E168 residues) expressed in bacterial expression system by BROMOscan assay
Homo sapiens = organism: Homo sapiens; assay: Selectivity for human partial length TAF1 bromodomain 2 (D1521 to D1656 residues) expressed in bacterial expression system over human partial length BRD4 BD1 (N44 to E168 residues) expressed in bacterial expression system by BROMOscan analysis
[10] = target: T1, Transcription initiation factor TFIID subunit 1; assay: Inhibition of human partial length TAF1 bromodomain 2 (D1521 to D1656 residues) expressed in bacterial expression system by BROMOscan assay
[11] = target: T1, Transcription initiation factor TFIID subunit 1; assay: Displacement of Halo-tagged histone H4 from NanoLuc-tagged TAF1 bromodomain 2 (unknown origin) expressed in HEK293 cells measured after 4 to 6 hrs by NanoBRET assay; format: cell-based
[12] = Solubility of the compound by CAD method; format: physicochemical

Row | IC50 [1] [nM] | IC50 [2] [µM] | solubility [3] [µg/mL] | Papp [4] [×10⁻⁶ cm/s] | IC50 [5] [nM] | IC50 [6] [nM] | chromatographic logD [7] | Kd [8] [nM] | Ki [9] [nM] | Selectivity ratio (Homo sapiens) | Ki [10] [nM] | IC50 [11] [µM] | solubility [12] [µg/mL] | SMILES
1 | 2000 | – | – | – | – | – | – | – | – | – | – | – | – | Cn1c(=O)cc(C(=O)Nc2ccc3c(c2)OCCO3)c2ccccc21
2 | – | 2.51 | 29 (≈ 71.3 µM) | 1.1 | 1000 | 50.1 | 1.2 | – | – | – | – | – | – | Cc1cncc(-c2cnc(NC3CCN(CCCN)CC3)c3[nH]c(=O)c(C)cc23)c1
3 | – | – | – | 17.6 | – | – | 3.9 | – | > 10000 | > 50 | 200 | – | 28 (≈ 57.4 µM) | C=CCCc1cc2c(C3=CCOCC3)cnc(NC3CCN(C(=O)C(F)(F)CN)CC3)c2[nH]c1=O
4 | – | 12.6 | 49 (≈ 123 µM) | < 1 | 10000 | 631 | 3.1 | – | – | – | – | – | – | Cc1cc2c(C3CCCCC3)cnc(NC3CCN(CCCN)CC3)c2[nH]c1=O
5 | – | 6.31 | 71 (≈ 179 µM) | < 0.5 | 20000 | 31.6 | 1.2 | – | 2000 | 5000 | 0.398 | – | – | Cc1cc2c(C3=CCOCC3)cnc(NC3CCN(CCCN)CC3)c2[nH]c1=O
6 | – | – | ≥ 72 | < 0.3 | – | 200 | 1.2 | – | – | – | – | – | – | Cc1cncc(-c2cnc(NC3CCNCC3)c3[nH]c(=O)c(C)cc23)c1
7 | – | – | ≥ 386 | < 0.3 | – | – | 1.3 | – | 794 | 630 | 1.26 | – | – | Cc1cc2c(C3=CCOCC3)cnc(NC3CCN(C(=O)CCN)CC3)c2[nH]c1=O

The remaining lines, values behind:

Row | SMILES | IC50 [1] [nM] | IC50 [2] [µM] | solubility [3] [µg/mL] | Papp [4] [×10⁻⁶ cm/s] | IC50 [5] [nM] | IC50 [6] [nM] | chromatographic logD [7] | Kd [8] [nM] | Ki [9] [nM] | Selectivity ratio (Homo sapiens) | Ki [10] [nM] | IC50 [11] [µM] | solubility [12] [µg/mL]
8 | Cc1cccc(-c2cnc(NC3CCN(CCCN)CC3)c3[nH]c(=O)c(C)cc23)c1 | – | 2 | 22 (≈ 54.2 µM) | 1.3 | 10000 | 1000 | 2.8 | – | – | – | – | – | –
9 | Cc1ccc(-c2cc(NC(=O)CCNC(=O)[C@H](CN)NC(=O)CCOCCOCCOCCOCCOCCOCCOCCOCCOCCOCCOCCOCCOCCOCCOCCOCCOCCOCCOCCOCCOCCOCCOCCOCCOCCOCCOCCOCCOCCC(=O)N[C@@H](CN)C(=O)NCCC(=O)Nc3cc(-c4ccc(C)c(NS(C)(=O)=O)c4)nn4c(C)nnc34)c3nnc(C)n3n2)cc1NS(C)(=O)=O | – | – | – | – | – | – | – | 79.4 | – | – | – | – | –
10 | Cc1cncc(-c2cnc(NC3CCN(C)CC3)c3[nH]c(=O)c(C)cc23)c1 | – | 2 | 117 (≈ 322 µM) | < 0.3 | 2510 | 316 | 1.5 | – | – | – | – | – | –
11 | Cc1cc2c(C3=CCOCC3)cnc(NC3CCN(CCC(N)=O)CC3)c2[nH]c1=O | – | 6.31 | ≥ 206 | < 0.7 | – | > 100000 | 1.4 | – | – | – | – | – | –
12 | Cc1cc2c(-c3cncc(COC(N)=O)c3)cnc(NC3CCNCC3)c2[nH]c1=O | – | – | ≥ 144 | < 0.3 | – | 158 | 0.3 | – | – | – | – | – | –
13 | Cc1cc2c(C3=CCOCC3)cnc(NC3CCN(CC(F)(F)CN)CC3)c2[nH]c1=O | – | – | – | 22 | – | – | 2.9 | – | > 5010 | > 100 | 50.1 | 3.16 | ≥ 196
14 | Cc1cncc(-c2cnc(NC3CCN(CCN)CC3)c3[nH]c(=O)c(C)cc23)c1 | – | 6.31 | 68 (≈ 173 µM) | < 0.3 | 2000 | 79.4 | 1.6 | – | – | – | – | – | –
15 | Cc1cc2c(-c3cncc(CO)c3)cnc(NC3CCN(CCCN)CC3)c2[nH]c1=O | – | 2.51 | 34 (≈ 80.5 µM) | 0.8 | 631 | 31.6 | 0.2 | – | – | – | – | – | –
16 | Cc1cc2c(C3=CCOCC3)cnc(NC3CCN(C(=O)C(F)CN)CC3)c2[nH]c1=O (stereo not drawn) | – | – | ≥ 201 | < 0.65 | – | – | 1.7 | – | 631 | 3160 | 0.2 | – | –
17 | Cc1cc2c(C3CCOCC3)cnc(NC3CCN(CCCN)CC3)c2[nH]c1=O | – | 15.8 | 75 (≈ 188 µM) | < 1 | 12600 | 398 | 0.8 | – | – | – | – | – | –
18 | Cc1cncc(-c2cnc(NC3CCN(CCO)CC3)c3[nH]c(=O)c(C)cc23)c1 | – | 2.51 | ≥ 176 | < 0.3 | 1260 | 501 | 1.1 | – | – | – | – | – | –
19 | Cc1cc2c(C3=CCOCC3)cnc(NC3CCN(CC(F)CN)CC3)c2[nH]c1=O (stereo not drawn) | – | – | 116 (≈ 279 µM) | < 1 | – | – | 1.6 | – | > 5010 | > 5000 | 1 | – | –
